Source: PMC10892984, “Novel Antineoplastic Inducers of Mitochondrial Apoptosis in Human Cancer Cells” (Molecules, 2024)
Several values for one entry are separate records, joined by “and”; a condition that tells them apart may be missing. Equal entries are not always repeated.

Tests used:
DU-145 cells = experiment: Cytochrome c assay (mitochondrial and cytosolic), ELISA; type: cell-based, human; settings: 25 µM
Description: (§1) Cell numbers of 2 × 10^6 PC-3 and DU-145 cells were seeded into a […]. […] The protein content for each fraction was calculated to determine the mass content of cytochrome c in each fraction (pg cytochrome c/mg total protein). The mass content of cytochrome c (pg cytochrome c/mg total protein) was normalized towards the corresponding blank DMSO control and is given in percent (%) of blank DMSO control.

PC-3 cells = experiment: as above; type: cell-based, human
Description: as §1

CCRF-CEM = settings: leukemia, mutant p53, 48 h
A549 = settings: A549, non-small-cell lung cancer, wild-type p53; 48 h
HOP-62 = settings: HOP-62, non-small-cell lung cancer, mutant p53; 48 h
NCI-H23 = settings: NCI-H23, non-small-cell lung cancer, mutant p53; 48 h
HCC-2998 = settings: HCC-2998, colon cancer, mutant p53; 48 h
KM-12 = settings: KM-12, colon cancer, mutant p53; 48 h
SW-620 = settings: SW-620, colon cancer, mutant p53; 48 h
SNB-19 = settings: SNB-19, CNS cancer (brain tumor), mutant p53; 48 h
MALME-3M = settings: MALME-3M, melanoma, wild-type p53; 48 h
SK-MEL-28 = settings: SK-MEL-28, melanoma, mutant p53; 48 h
SK-MEL-5 = settings: SK-MEL-5, melanoma, wild-type p53; 48 h
UACC-257 = settings: UACC-257, melanoma, wild-type p53; 48 h
IGROV1 = settings: IGROV1, ovarian cancer, mutant p53; 48 h
OVCAR-4 = settings: OVCAR-4, ovarian cancer, mutant p53; 48 h
SK-OV-3 = settings: SK-OV-3, ovarian cancer, no p53 protein expressed; 48 h
786-0 = settings: 786-0, renal cancer, mutant p53; 48 h
ACHN = settings: renal cancer, wild-type p53, 48 h
CAKI-1 = settings: CAKI-1, renal cancer, wild-type p53; 48 h
RXF 393 = settings: RXF 393, renal cancer, mutant p53; 48 h
PC-3 = settings: PC-3, prostate cancer, mutant p53 (null p53 protein); 48 h
BT-549 = settings: BT-549, breast cancer, mutant p53; 48 h
T-47D = settings: T-47D, breast cancer, mutant p53; 48 h
MDA-MB-468 = settings: MDA-MB-468, breast cancer, mutant p53; 48 h
[1] = test system: 60 human cancer cell lines
Description: The defined tumor inhibition criterion (GI50, TGI, or LC50) is recalculated in log10 expression, and the colored bars, which indicate then the sensitivity of the individual tumor cell line to the agent, are given in log10 units. […] The most important feature is at the bottom of the page: the MID (Mean of Inhibition Data) indicates the mean concentration for all tested cell lines required for the drug to reach the defined tumor inhibition criterion (GI50, TGI, or LC50). It is given in Log10GI50, Log10TGI, and Log10LC50. From those values, the corresponding MID is calculated. […] The MID can be transformed from logarithmic into linear concentrations by the formula: c = 10^MID.
The human tumor cell lines of the cancer screening panel are grown in RPMI-1640 medium containing 5% fetal bovine serum (FBS) and 2 mM L-glutamine. For a typical screening experiment, cells are inoculated into 96-well microtiter plates in 100 μL at plating densities ranging from 5000 to 40,000 cells/well, depending on the doubling time of individual cell lines. After cell inoculation, the microtiter plates are incubated at 37 °C, 5% CO2, 95% air, and 100% relative humidity for 24 h prior to the addition of experimental drugs. After 24 h, two plates of each cell line are fixed in situ with trichloroacetic acid (TCA) to represent a measurement of the cell population for each cell line at the time of drug addition (Tz). Experimental drugs are solubilized in dimethyl sulfoxide (DMSO) at 400-fold the desired final maximum test concentration and stored frozen prior to use. At the time of drug addition, an aliquot of frozen concentrate is thawed and diluted to twice the desired final maximum test concentration with a complete medium containing 50 μg/mL gentamicin. Additional four, 10-fold or ½ log serial dilutions are made to provide a total of five drug concentrations plus control. Aliquots of 100 μL of these different drug dilutions are added to the appropriate microtiter wells already containing 100 μL of the medium, resulting in the required final drug concentrations.
Following drug addition, the plates are incubated for an additional 48 h at 37 °C, 5% CO2, 95% air, and 100% relative humidity. For adherent cells, the assay is terminated by the addition of cold TCA. Cells are fixed in situ by the gentle addition of 50 μL of cold 50% (m/v) TCA (final concentration, 10% TCA) and incubated for 60 min at 4 °C. The supernatant is discarded, and the plates are washed five times with tap water and air dried. Sulforhodamine B (SRB) solution [100 μL at 0.4% (m/v) in 1% acetic acid] is added to each well, and plates are incubated for 10 min at room temperature. After staining, unbound dye is removed by washing five times with 1% acetic acid, and the plates are air dried. Bound stain is subsequently solubilized with 10 mM trizma® base [2-amino-2-(hydroxymethyl)-1,3-propandiol, tris base, trometamol], and the absorbance is read on an automated plate reader at a wavelength of λ = 515 nm. For suspension cells, the methodology is the same, except that the assay is terminated by fixing settled cells at the bottom of the wells by gently adding 50 μL of 80% TCA (final concentration, 16% TCA). Using the seven absorbance measurements [time zero, (Tz), control growth, (C), and test growth in the presence of the drug at the five concentration levels (Ti)], the percentage growth is calculated at each of the drug concentration levels. Percentage growth inhibition is calculated as:[(Ti − Tz)/(C − Tz)] × 100 for concentrations for which Ti ≥ Tz [(Ti − Tz)/Tz] × 100 for concentrations for which Ti < Tz
Three dose-response parameters are calculated for each experimental agent.

With COc1cc2c(c(OC)c1OC)-c1ccc(NNC(=S)N(Cc3cccc(C[N+](Cc4cccc(CNC56CC7CC(CC(C7)C5)C6)c4)(Cc4cccc(CNC56CC7CC(CC(C7)C5)C6)c4)Cc4cccc(CN(C(=S)NNc5ccc6c(cc5=O)C(NC(C)=O)CCc5cc(OC)c(OC)c(OC)c5-6)C56CC7CC(CC(C7)C5)C6)c4)c3)C34CC5CC(CC(C5)C3)C4)c(=O)cc1C(NC(C)=O)CC2 [Compound 3, [(bis{3-[(tricyclo[3.3.1.1^3,7]decan-1-ylamino)methyl]benzyl}ammonio)bis(methanediylbenzene-3,1-diylmethanediyl)]di-2-[(aS,7S)-7-(acetylamino)-1,2,3-trimethoxy-9-oxo-5,6,7,9-tetrahydrobenzo[a]heptalen-10-yl]-N-(tricyclo[3.3.1.1^3,7]decan-1-yl)hydrazinecarbothioamide chloride pentahydrate] as the compound, how does the “toxicity for the cell line” value (DU-145 cells; 50 µM and 75 µM, 48 h post-treatment) read?
The value was “highly toxic”.

What about the “concentration at which cytochrome c translocation from mitochondria into the cytosol was readily induced” value (DU-145 cells; 48 h, tested 500 nM, 1 µM, 5 µM) of the same compound?
The value was 25.0 µM.

What about the “toxicity for the cell line” value (PC-3 cells; 25 µM, 50 µM and 75 µM, 48 h post-treatment) of the same compound?
The value was “highly toxic”.

What about the “cell death with depletion of cytosolic cytochrome c” value (PC-3 cells; 25.0 µM, 48 h) of the same compound?
The value was “induced complete cell death”.

And the “concentration at which cytochrome c translocation from mitochondria into the cytosol was readily induced” value (PC-3 cells; 48 h, tested 500 nM, 1 µM, 5 µM, 25 µM)?
The value was 5.0 µM.

And the TGI (CCRF-CEM)?
Its TGI is 2.47 µM.

What about the TGI (A549) of the same compound?
The TGI was 6.00 µM.

What about the TGI (HOP-62) of the same compound?
Its TGI is 7.43 µM.

And the TGI (NCI-H23)?
Its TGI is 5.33 µM.

What about the TGI (HCC-2998) of the same compound?
The TGI was 1.47 µM.

And the TGI (KM-12)?
The TGI was 4.52 µM.

What about the TGI (SW-620) of the same compound?
The TGI was 2.06 µM.

What about the TGI (SNB-19) of the same compound?
The TGI was 6.20 µM.

What about the TGI (MALME-3M) of the same compound?
The TGI was 3.04 µM.

And the TGI (SK-MEL-28)?
The TGI was 4.07 µM.

What about the TGI (SK-MEL-5) of the same compound?
The TGI was 2.25 µM.

What about the TGI (UACC-257) of the same compound?
Its TGI is 10.3 µM.

And the TGI (IGROV1)?
The TGI was 5.95 µM.

And the TGI (OVCAR-4)?
The TGI was 8.94 µM.

What about the TGI (SK-OV-3) of the same compound?
The TGI was 7.51 µM.

What about the TGI (786-0) of the same compound?
The TGI was 5.28 µM.

And the TGI (ACHN)?
The TGI was 7.99 µM.

And the TGI (CAKI-1)?
Its TGI is 7.37 µM.

What about the TGI (RXF 393) of the same compound?
Its TGI is 6.65 µM.

And the TGI (PC-3)?
Its TGI is 5.64 µM.

What about the TGI (BT-549) of the same compound?
The TGI was 5.89 µM.

And the TGI (T-47D)?
The TGI was 9.40 µM.

What about the TGI (MDA-MB-468) of the same compound?
Its TGI is 1.75 µM.

And the “induction of cancer cell death (classification)” value ([1]; NCI 60 panel overall)?
Its value is “tumoricidal”.

What about the “Mean of Inhibition Data (MID) TGI, 10^MID” value ([1]; mean over all tested cell lines of the NCI 60 panel) of the same compound?
The value was 4.571 µM and 4.57 µM.
